For one assay, the target named is recombinant human AMCase (Homo sapiens (Human), UniProt Q9BZP6). As to the kind of experiment: Human AMCase activity assay (fluorescent 4MU substrate). The format is biochemical. The following applies: citrate buffer pH 5.2, 37° C., 60 minutes; substrate 4-methylumbelliferyl B-D-N,N′-diacetylchitobioside hydrate; read-out: Activity on hAMCase, IC50.
For the next assay, the target named is recombinant human CHIT1 (Homo sapiens (Human), UniProt Q13231). As to the kind of experiment: Human CHIT1 activity assay (fluorescent 4MU substrate). In kind it is biochemical. As to conditions: citrate buffer pH 5.2, 37° C., 60 minutes; substrate 4-methylumbelliferyl β-D-N,N′,N″-triacetylchitotriose; read-out: Activity on hCHIT1, IC50.
Chain of recombinant human CHIT1 (Q13231 22-466): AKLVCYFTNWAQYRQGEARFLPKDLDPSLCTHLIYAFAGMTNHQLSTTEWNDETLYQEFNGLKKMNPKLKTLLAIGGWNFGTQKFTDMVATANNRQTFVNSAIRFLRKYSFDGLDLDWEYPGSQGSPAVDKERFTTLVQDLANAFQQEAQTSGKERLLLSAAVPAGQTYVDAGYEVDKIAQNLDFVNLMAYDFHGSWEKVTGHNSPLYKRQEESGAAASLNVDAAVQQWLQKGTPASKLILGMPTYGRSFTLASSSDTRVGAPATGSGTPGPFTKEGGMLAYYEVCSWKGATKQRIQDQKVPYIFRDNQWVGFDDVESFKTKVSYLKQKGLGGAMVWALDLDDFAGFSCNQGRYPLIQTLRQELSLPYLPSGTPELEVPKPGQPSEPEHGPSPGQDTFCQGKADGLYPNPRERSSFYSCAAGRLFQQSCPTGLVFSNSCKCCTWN

Chain of recombinant human AMCase (Q9BZP6 22-476): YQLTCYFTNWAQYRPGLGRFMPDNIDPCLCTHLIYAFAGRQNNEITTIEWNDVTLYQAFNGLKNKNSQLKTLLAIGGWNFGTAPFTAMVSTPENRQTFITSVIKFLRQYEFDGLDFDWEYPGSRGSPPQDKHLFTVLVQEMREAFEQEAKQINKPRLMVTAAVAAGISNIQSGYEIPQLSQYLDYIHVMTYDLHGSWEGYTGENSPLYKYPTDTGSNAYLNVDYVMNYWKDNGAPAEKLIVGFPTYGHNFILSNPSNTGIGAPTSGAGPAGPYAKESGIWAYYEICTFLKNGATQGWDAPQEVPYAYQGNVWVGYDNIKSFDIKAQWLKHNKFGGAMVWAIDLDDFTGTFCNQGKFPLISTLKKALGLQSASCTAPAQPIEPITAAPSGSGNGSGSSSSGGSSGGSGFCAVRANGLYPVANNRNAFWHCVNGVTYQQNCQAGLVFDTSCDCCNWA

On to `Nc1nnc(N2CCC(N3Cc4cc(F)ccc4OC[C@@H]3Cc3ccc(Cl)cc3)CC2)[nH]1` [Example 60, (S)-5-(4-(3-(4-chlorobenzyl)-7-fluoro-2,3-dihydrobenzo[f][1,4]oxazepin-4(5H)-yl)piperidin-1-yl)-4H-1,2,4-triazol-3-amine], for which the IC50 was < 100 nM at recombinant human AMCase and 100 to 1000 nM on recombinant human CHIT1.

Consider `CN1C[C@H](Cc2ccc(Cl)cc2)N(C2CCN(c3nnc(N)[nH]3)CC2)Cc2ccccc21` [Example 57, (S)-5-(4-(3-(4-chlorobenzyl)-1-methyl-2,3-dihydro-1H-benzo[e][1,4]diazepin-4(5H)-yl)piperidin-1-yl)-4H-1,2,4-triazol-3-amine], for which the IC50 on recombinant human AMCase was < 100 nM; at recombinant human CHIT1 it was 100 to 1000 nM.

With `CC1(C(=O)O)CC[C@H](Cc2ccc(Cl)cc2)N(C2CCN(c3nnc(N)[nH]3)CC2)C1` (stereo partly drawn) [Example 18, (6R)-1′-(5-amino-4H-1,2,4-triazol-3-yl)-6-(4-chlorobenzyl)-3-methyl-[1,4′-bipiperidine]-3-carboxylic acid], on recombinant human AMCase, the IC50 was < 100 nM.

Take `Nc1nnc(N2CCC(N3Cc4cc(Cl)cc(Cl)c4OC[C@@H]3Cc3ccc(Cl)cc3)CC2)[nH]1` [Example 62, (S)-5-(4-(7,9-dichloro-3-(4-chlorobenzyl)-2,3-dihydrobenzo[f][1,4]oxazepin-4(5H)-yl)piperidin-1-yl)-4H-1,2,4-triazol-3-amine]: the IC50 was < 100 nM at recombinant human AMCase and 10000 to 100000 nM on recombinant human CHIT1.

Regarding `CN1C[C@H](Cc2ccc(Cl)cc2)N(C2CCN(c3nnc(N)[nH]3)CC2)C[C@@H]1CC1CCCCC1` [Example 32, 5-(4-((2S,5S)-2-(4-chlorobenzyl)-5-(cyclohexylmethyl)-4-methylpiperazin-1-yl)piperidin-1-yl)-4H-1,2,4-triazol-3-amine], the IC50 at recombinant human AMCase is < 100 nM; at recombinant human CHIT1 it was 1000 to 10000 nM.

For `Nc1nnc(N2CCC(N3CCOC[C@@H]3Cc3ccc(Br)cc3)CC2)[nH]1` [Example 3, (S)-5-(4-(3-(4-bromobenzyl)morpholino)piperidin-1-yl)-4H-1,2,4-triazol-3-amine], on recombinant human AMCase, the IC50 was < 100 nM.

Regarding `CC(C)CN1CCN(C2CCN(c3nnc(N)[nH]3)CC2)[C@@H](Cc2ccc(Cl)cc2)C1` [Example 29, (S)-5-(4-(2-(4-chlorobenzyl)-4-isobutylpiperazin-1-yl)piperidin-1-yl)-4H-1,2,4-triazol-3-amine], the IC50 on recombinant human CHIT1 was in the range of 10000 to 100000 nM.

`CCOC[C@H]1CN(C2CCN(c3nnc(N)[nH]3)CC2)[C@@H](Cc2ccc(Cl)cc2)CO1` [Example 11, 5-(4-((2R,5S)-5-(4-chlorobenzyl)-2-(ethoxymethyl)morpholino)piperidin-1-yl)-4H-1,2,4-triazol-3-amine]: the half-maximal inhibitory concentration (IC50) at recombinant human AMCase was < 100 nM.

For the compound `CC1(O)C[C@H](Cc2ccc(Cl)cc2)N(C2CCN(c3nnc(N)[nH]3)CC2)C1` (stereo partly drawn) [Example 48, (5S)-1-(1-(5-amino-4H-1,2,4-triazol-3-yl)piperidin-4-yl)-5-(4-chlorobenzyl)-3-methylpyrrolidin-3-ol], the figures for the IC50 on recombinant human AMCase and on recombinant human CHIT1 were < 100 nM and 100 to 1000 nM, respectively.

Regarding `CO[C@@H]1C[C@H](Cc2ccc(Cl)cc2)N(C2CCN(c3n[nH]c(N)n3)CC2)C1` [Example 51, 3-(4-((2S,4R)-2-(4-chlorobenzyl)-4-methoxypyrrolidin-1-yl)piperidin-1-yl)-1H-1,2,4-triazol-5-amine], at recombinant human CHIT1, the half-inhibitory concentration (IC50) is < 100 nM.

As to `Nc1nnc(N2CCC(N3C[C@@H]4CCCN4C[C@@H]3Cc3ccc(Cl)cc3)CC2)[nH]1` [Example 49, 5-(4-((3S,8aS)-3-(4-chlorobenzyl)hexahydropyrrolo[1,2-a]pyrazin-2(1H)-yl)piperidin-1-yl)-4H-1,2,4-triazol-3-amine], the 50% inhibitory concentration (IC50) at recombinant human AMCase was < 100 nM.

With `CCOC(=O)C1CC[C@H](Cc2ccc(Cl)cc2)N(C2CCN(c3nnc(N)[nH]3)CC2)C1` (stereo partly drawn) [Example 16, ethyl (6R)-1′-(5-amino-4H-1,2,4-triazol-3-yl)-6-(4-chlorobenzyl)-[1,4′-bipiperidine]-3-carboxylate], at recombinant human AMCase, the IC50 was < 100 nM.

Turning to `Nc1nnc(N2CCC(N3C[C@@H](F)[C@@H]3Cc3ccc(Cl)cc3)CC2)[nH]1` [Example 23, 5-(4-((2S,3R)-2-(4-chlorobenzyl)-3-fluoroazetidin-1-yl)piperidin-1-yl)-4H-1,2,4-triazol-3-amine], the half-inhibitory concentration (IC50) at recombinant human CHIT1 lay in the range of 10000 to 100000 nM.

Consider `CO[C@H]1C[C@H](Cc2ccc(Cl)cc2)N(C2CCN(c3nnc(N)[nH]3)CC2)C1` [Example 46, 5-(4-((2S,4S)-2-(4-chlorobenzyl)-4-methoxypyrrolidin-1-yl)piperidin-1-yl)-4H-1,2,4-triazol-3-amine], for which the IC50 on recombinant human CHIT1 is < 100 nM.

Regarding `CC(C)C[C@H]1CN(C2CCN(c3nnc(N)[nH]3)CC2)[C@@H](Cc2ccc(Cl)cc2)CN1C` [Example 33, 5-(4-((2S,5S)-2-(4-chlorobenzyl)-5-isobutyl-4-methylpiperazin-1-yl)piperidin-1-yl)-4H-1,2,4-triazol-3-amine], the figures for the IC50 on recombinant human AMCase and on recombinant human CHIT1 were < 100 nM and 1000 to 10000 nM, respectively.

Turning to `COC(C)(C)[C@H]1CN(C2CCN(c3nnc(N)[nH]3)CC2)[C@@H](Cc2ccc(Cl)cc2)CO1` [Example 14, 5-(4-((2R,5S)-5-(4-chlorobenzyl)-2-(2-methoxypropan-2-yl)morpholino)piperidin-1-yl)-4H-1,2,4-triazol-3-amine], the IC50 at recombinant human AMCase is < 100 nM.

Turning to `CO[C@H]1CN(C2CCN(c3nnc(N)[nH]3)CC2)[C@H]1Cc1ccc(Cl)cc1` [Example 22, 5-(4-((2S,3S)-2-(4-chlorobenzyl)-3-methoxyazetidin-1-yl)piperidin-1-yl)-4H-1,2,4-triazol-3-amine], the IC50 on recombinant human CHIT1 is 100 to 1000 nM.

With `CN1C[C@H](Cc2ccc(Cl)cc2)N(C2CCN(c3nnc(N)[nH]3)CC2)C[C@@H]1Cc1ccc(Cl)cc1` [Example 31, 5-(4-((2S,5S)-2,5-bis(4-chlorobenzyl)-4-methylpiperazin-1-yl)piperidin-1-yl)-4H-1,2,4-triazol-3-amine], the IC50 on recombinant human AMCase was < 100 nM; at recombinant human CHIT1, 1000 to 10000 nM.

For the compound `Nc1nnc(N2CCC(N3CCOCC3Cc3ccc(Cl)cc3)CC2)[nH]1` (stereo not drawn) [Example 2, 5-(4-(3-(4-chlorobenzyl)morpholino)piperidin-1-yl)-4H-1,2,4-triazol-3-amine], the IC50 at recombinant human CHIT1 was 100 to 1000 nM.

For the compound `Nc1nnc(N2CCC(N3CCNC[C@@H]3Cc3ccc(Cl)cc3)CC2)[nH]1` [Example 26, (S)-5-(4-(2-(4-chlorobenzyl)piperazin-1-yl)piperidin-1-yl)-4H-1,2,4-triazol-3-amine], the IC50 on recombinant human CHIT1 fell in the range of 1000 to 10000 nM.

On to `Nc1nnc(N2CCC(N3CCCCC3C(O)c3ccc(Cl)cc3)CC2)[nH]1` (stereo not drawn) [Example 21, (1′-(5-amino-4H-1,2,4-triazol-3-yl)-[1,4′-bipiperidin]-2-yl)(4-chlorophenyl)methanol], for which the IC50 at recombinant human CHIT1 was 10000 to 100000 nM.

As for `C[C@H]1CN(C2CCN(c3nnc(N)[nH]3)CC2)[C@@H](Cc2ccc(Cl)cc2)CN1C` [Example 27, 5-(4-((2S,5S)-2-(4-chlorobenzyl)-4,5-dimethylpiperazin-1-yl)piperidin-1-yl)-4H-1,2,4-triazol-3-amine], on recombinant human CHIT1, the IC50 was in the range of 1000 to 10000 nM.

For the compound `Nc1nnc(N2CCC(N3Cc4ccccc4OC[C@@H]3Cc3ccc(Cl)cc3)CC2)[nH]1` [Example 59, (S)-5-(4-(3-(4-chlorobenzyl)-2,3-dihydrobenzo[f][1,4]oxazepin-4(5H)-yl)piperidin-1-yl)-4H-1,2,4-triazol-3-amine], the IC50 on recombinant human AMCase was < 100 nM; on recombinant human CHIT1, 100 to 1000 nM.

With `CN1C[C@H](Cc2ccc(Cl)cc2)N(C2CCN(c3nnc(N)[nH]3)CC2)Cc2cc(Cl)ccc21` [Example 58, (S)-5-(4-(7-chloro-3-(4-chlorobenzyl)-1-methyl-2,3-dihydro-1H-benzo[e][1,4]diazepin-4(5H)-yl)piperidin-1-yl)-4H-1,2,4-triazol-3-amine], the IC50 at recombinant human AMCase is < 100 nM; at recombinant human CHIT1, 100 to 1000 nM.

Take `Nc1nnc(N2CCC(N3CCCC[C@@H]3Cc3ccc(Cl)cc3)CC2)[nH]1` [Example 15, (R)-5-(2-(4-chlorobenzyl)-[1,4′-bipiperidin]-1′-yl)-4H-1,2,4-triazol-3-amine]: on recombinant human AMCase, the IC50 is < 100 nM.

For the compound `C=C1COC[C@H](Cc2ccc(Cl)cc2)N(C2CCN(c3nnc(N)[nH]3)CC2)C1` [Example 55, (S)-5-(4-(3-(4-chlorobenzyl)-6-methylene-1,4-oxazepan-4-yl)piperidin-1-yl)-4H-1,2,4-triazol-3-amine], the IC50 at recombinant human AMCase is < 100 nM; at recombinant human CHIT1, 100 to 1000 nM.

For `Nc1nnc(N2CCC(N3Cc4cc(Cl)ccc4OC[C@@H]3Cc3ccc(Cl)cc3)CC2)[nH]1` [Example 61, (S)-5-(4-(7-chloro-3-(4-chlorobenzyl)-2,3-dihydrobenzo[f][1,4]oxazepin-4(5H)-yl)piperidin-1-yl)-4H-1,2,4-triazol-3-amine], the results for the IC50 on recombinant human AMCase and on recombinant human CHIT1 were < 100 nM and 1000 to 10000 nM, respectively.

Turning to `COC(=O)CN1C[C@H](Cc2ccc(Cl)cc2)N(C2CCN(c3nnc(N)[nH]3)CC2)C[C@@H]1C` [Example 40, methyl 2-((2S,5S)-4-(1-(5-amino-4H-1,2,4-triazol-3-yl)piperidin-4-yl)-5-(4-chlorobenzyl)-2-methylpiperazin-1-yl)acetate], at recombinant human AMCase, the IC50 was < 100 nM.

On to `C[C@H]1CN(C2CCN(c3nnc(N)[nH]3)CC2)[C@@H](Cc2ccc(Cl)cc2)CN1CC(=O)O` [Example 41, 2-((2S,5S)-4-(1-(5-amino-4H-1,2,4-triazol-3-yl)piperidin-4-yl)-5-(4-chlorobenzyl)-2-methylpiperazin-1-yl)acetic acid], for which, at recombinant human AMCase, the IC50 is < 100 nM.

`Nc1nnc(N2CCC(N3CC(C(=O)O)CC[C@@H]3Cc3ccc(Cl)cc3)CC2)[nH]1` (stereo partly drawn) [Example 17, (6R)-1′-(5-amino-4H-1,2,4-triazol-3-yl)-6-(4-chlorobenzyl)-[1,4′-bipiperidine]-3-carboxylic acid]: the IC50 at recombinant human AMCase is < 100 nM.

`Nc1nnc(N2CCC(N3CCOC[C@@H]3Cc3ccc(Cl)cc3)CC2)[nH]1` [Example 1, (S)-5-(4-(3-(4-chlorobenzyl)morpholino)piperidin-1-yl)-4H-1,2,4-triazol-3-amine]: the IC50 at recombinant human AMCase is < 100 nM.
